Source: BigSolDB 2.1

CC(=O)Nc1ccc(O)cc1
Details | solubility (mole fraction)
in acetone, 292.95 K | 0.0327
in acetone, 302.85 K | 0.0411
in acetone, 311.95 K | 0.0534
in acetone, 320.65 K | 0.068
in ethanol, 295.15 K | 0.0549
in ethanol, 305.35 K | 0.0662
in ethanol, 314.15 K | 0.0737
in ethanol, 322.15 K | 0.0898
in ethanol, 332.95 K | 0.116
in ethanol, 341.25 K | 0.141
in ethanol, 350.05 K | 0.18
in ethanol, 360.15 K | 0.216
in isopropanol, 293.65 K | 0.0415
in isopropanol, 304.05 K | 0.0509
in isopropanol, 313.05 K | 0.0604
in isopropanol, 320.25 K | 0.0696
in isopropanol, 325.35 K | 0.0787
in isopropanol, 330.25 K | 0.0876
in isopropanol, 336.15 K | 0.105
in isopropanol, 343.45 K | 0.121
in isopropanol, 348.15 K | 0.136
in isopropanol, 353.05 K | 0.152
in isopropanol, 356.15 K | 0.159
in methanol, 293.45 K | 0.0594
in methanol, 303.55 K | 0.073
in methanol, 313.95 K | 0.0906
in methanol, 323.35 K | 0.111
in methanol, 330.95 K | 0.133
in methanol, 341.55 K | 0.175
in methanol, 354.15 K | 0.229
in n-butanol, 293.05 K | 0.0364
in n-butanol, 302.95 K | 0.0439
in n-butanol, 312.55 K | 0.0526
in n-butanol, 323.05 K | 0.0659
in n-butanol, 332.55 K | 0.0792
in n-butanol, 343.65 K | 0.099
in n-butanol, 353.15 K | 0.126
in n-butanol, 362.65 K | 0.152
in n-pentanol, 303.55 K | 0.038
in n-pentanol, 313.85 K | 0.0468
in n-pentanol, 323.65 K | 0.0571
in n-pentanol, 333.65 K | 0.073
in n-pentanol, 343.55 K | 0.0893
in n-pentanol, 353.75 K | 0.108
in n-pentanol, 361.55 K | 0.129
in n-propanol, 293.05 K | 0.0412
in n-propanol, 302.95 K | 0.0501
in n-propanol, 312.55 K | 0.061
in n-propanol, 322.55 K | 0.0735
in n-propanol, 332.25 K | 0.093
in n-propanol, 342.15 K | 0.117
in n-propanol, 351.25 K | 0.142
in n-propanol, 359.15 K | 0.165
